Laboratory results as given in ChEMBL document CHEMBL1152569, “Synthesis, structure-affinity relationships, and modeling of AMDA analogs at 5-HT2A and H1 receptors: structural factors contributing to selectivity” (Bioorg Med Chem, 2009).

Key:
[1] = biological target: 5-hydroxytryptamine receptor 2A (Homo sapiens, UniProt P28223); assay: Displacement of [3H]ketanserin from human 5HT2A receptor expressed in cells; assay type: cell-based
[2] = biological target: Histamine H1 receptor (Homo sapiens, UniProt P35367); assay: Displacement of [3H]chlorphniramine from human histamine H1 receptor expressed in cells; assay type: cell-based
Histamine H1 receptor, sequence (P35367 whole entry): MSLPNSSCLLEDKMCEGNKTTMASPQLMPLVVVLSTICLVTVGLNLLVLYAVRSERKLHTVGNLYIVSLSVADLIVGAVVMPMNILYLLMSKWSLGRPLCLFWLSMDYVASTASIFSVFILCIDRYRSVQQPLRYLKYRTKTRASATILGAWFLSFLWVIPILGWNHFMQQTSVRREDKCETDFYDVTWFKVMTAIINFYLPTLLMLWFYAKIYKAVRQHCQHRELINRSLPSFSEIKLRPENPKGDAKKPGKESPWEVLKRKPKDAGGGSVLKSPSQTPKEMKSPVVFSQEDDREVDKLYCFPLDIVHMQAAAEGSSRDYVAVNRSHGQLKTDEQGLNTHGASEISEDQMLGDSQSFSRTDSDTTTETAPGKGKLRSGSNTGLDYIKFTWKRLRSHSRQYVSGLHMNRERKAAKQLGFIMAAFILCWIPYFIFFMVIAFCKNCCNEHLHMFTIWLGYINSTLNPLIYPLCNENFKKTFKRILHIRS

5-hydroxytryptamine receptor 2A, sequence (P28223 whole entry): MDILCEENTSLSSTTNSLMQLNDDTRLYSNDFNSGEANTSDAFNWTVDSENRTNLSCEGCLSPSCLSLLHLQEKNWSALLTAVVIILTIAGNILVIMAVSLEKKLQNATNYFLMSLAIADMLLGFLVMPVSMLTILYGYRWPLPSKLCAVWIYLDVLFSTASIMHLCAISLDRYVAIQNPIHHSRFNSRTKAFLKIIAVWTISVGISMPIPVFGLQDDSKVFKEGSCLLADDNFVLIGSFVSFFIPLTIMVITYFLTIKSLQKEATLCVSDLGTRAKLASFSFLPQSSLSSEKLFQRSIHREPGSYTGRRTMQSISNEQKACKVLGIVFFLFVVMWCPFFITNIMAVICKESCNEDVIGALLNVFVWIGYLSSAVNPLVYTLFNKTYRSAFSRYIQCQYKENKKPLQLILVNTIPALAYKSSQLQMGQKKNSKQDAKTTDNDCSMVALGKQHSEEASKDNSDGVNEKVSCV

Structure (SMILES) | Ki [1] [nM] | Ki [2] [nM]
CN(C)CCCC(c1ccccc1)c1ccccc1 | 1150 | 70
CN(C)CC(c1ccccc1)c1ccccc1 | 7360 | 5170
NCCCC1c2ccccc2Cc2ccccc21 | – | 175
CN(C)CC1c2ccccc2Cc2ccccc21 | – | 25
CNCC(c1ccccc1)c1ccccc1 | > 10000 | > 10000
CN(C)CCC(c1ccccc1)c1ccccc1 | 1640 | 75
NCCC1c2ccccc2Cc2ccccc21 | – | 137
CNCCC1c2ccccc2Cc2ccccc21 | 92 | 48
CNCC1c2ccccc2Cc2ccccc21 | – | 189
CN(C)CCC1c2ccccc2Cc2ccccc21 | 84 | 6
CNCCCC1c2ccccc2Cc2ccccc21 | – | 3
CNCCCC(c1ccccc1)c1ccccc1 | 754 | 386
CNCCC(c1ccccc1)c1ccccc1 | 1500 | 64
CN(C)CCCC1c2ccccc2Cc2ccccc21 | – | 0.5
NCCC(c1ccccc1)c1ccccc1 | > 10000 | 2760
NCCCC(c1ccccc1)c1ccccc1 | 2590 | 1670
NCC1c2ccccc2Cc2ccccc21 | – | 197
NCC(c1ccccc1)c1ccccc1 | – | > 10000
